Data published in patent publication US7754746B2, “Organic compounds” (Novartis AG, priority 2005, dated 2010).

Target: recombinant GST-p110γ (human PI3Kγ residues 38-1102) (Homo sapiens, UniProt P48736)
Assay: in vitro kinase assay (Scintillation Proximity Assay), phosphate transfer from ATP to phosphatidylinositol
Conditions: 12.5 μM ATP in assay mix, 60 minutes at room temperature
Procedure: An in vitro kinase assay was established that measures the transfer of the terminal phosphate of adenosine triphosphate to phosphatidylinositol. The kinase reaction is performed in a white 96 well microtitre plate as a Scintillation Proximity Assay. […] The reaction is started by the addition of 20 μl of enzyme mix (40 mM Tris, 200 mM NaCl, 2 mM EGTA containing recombinant GST-p110γ).

Sequence of recombinant GST-p110γ (human PI3Kγ residues 38-1102) (P48736 38-1102): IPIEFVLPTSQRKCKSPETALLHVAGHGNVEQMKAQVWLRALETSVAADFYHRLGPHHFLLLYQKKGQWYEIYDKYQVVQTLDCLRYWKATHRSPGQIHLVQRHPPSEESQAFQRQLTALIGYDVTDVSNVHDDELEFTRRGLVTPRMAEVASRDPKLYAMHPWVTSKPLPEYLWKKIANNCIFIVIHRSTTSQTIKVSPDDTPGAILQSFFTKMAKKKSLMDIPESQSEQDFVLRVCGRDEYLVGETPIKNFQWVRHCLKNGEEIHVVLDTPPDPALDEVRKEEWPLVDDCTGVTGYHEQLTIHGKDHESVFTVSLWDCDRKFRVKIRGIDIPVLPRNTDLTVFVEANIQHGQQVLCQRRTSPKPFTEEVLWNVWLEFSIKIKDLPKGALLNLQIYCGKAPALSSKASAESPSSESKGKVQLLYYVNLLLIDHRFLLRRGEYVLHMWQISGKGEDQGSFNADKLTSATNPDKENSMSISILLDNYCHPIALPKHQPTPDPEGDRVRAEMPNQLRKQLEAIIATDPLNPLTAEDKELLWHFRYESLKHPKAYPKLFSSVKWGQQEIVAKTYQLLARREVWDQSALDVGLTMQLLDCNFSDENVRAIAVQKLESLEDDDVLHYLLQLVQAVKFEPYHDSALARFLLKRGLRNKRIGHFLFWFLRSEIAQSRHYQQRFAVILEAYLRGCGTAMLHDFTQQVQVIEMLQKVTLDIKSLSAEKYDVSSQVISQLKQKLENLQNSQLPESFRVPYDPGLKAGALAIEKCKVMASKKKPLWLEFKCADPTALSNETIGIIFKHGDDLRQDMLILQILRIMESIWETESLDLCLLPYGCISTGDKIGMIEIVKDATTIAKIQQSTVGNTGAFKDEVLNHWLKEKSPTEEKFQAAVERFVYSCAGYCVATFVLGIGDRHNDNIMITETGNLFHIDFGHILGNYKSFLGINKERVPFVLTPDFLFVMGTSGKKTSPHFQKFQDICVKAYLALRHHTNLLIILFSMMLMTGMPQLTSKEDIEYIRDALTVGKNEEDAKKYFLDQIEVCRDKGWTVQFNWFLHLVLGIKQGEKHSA

IC50: 110 nM
SMILES: CC(=O)c1ccc(-c2sc(NC(=O)NCCc3cn(CCF)cn3)nc2C)cc1 [Example 5]
